Experimental data taken from patent US20140377340A1, “HLA-DR BINDING PEPTIDES AND THEIR USES” (priority 2007, published 2014).

What was measured:
purified HLA DRB1*0404 = biological target: T1, purified HLA DRB1*0404 (Homo sapiens, UniProt P01903+P01911, A100R/A169T/F76Y/I96L/K127E/L162R/M171V/N62H/P40V/Q125Y/R42H/S133A/S149N/S66Y/V209L/W38E); experiment: HLA-DR radioligand binding inhibition assay, DRB1*0404; conditions: IC50 nM purified HLA DRB1 *0404, purified HLA DRB1*0404
T1 construct: purified from EBV transformed homozygous cell lines or single MHC allele transfected 721.221, C1R, or fibroblast lines; made in house
Method in brief: (§1)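 The probe, 1-10 nM radiolabeled peptide, was incubated with 1 μM to 1 nM HLA-DR for 2 days in the presence of protease inhibitors.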

purified HLA DRB1*0405 = biological target: T2, purified HLA DRB1*0405 (Homo sapiens, UniProt P01903+P01911, A100R/A169T/D86S/F76Y/I96L/K127E/L162R/M171V/N62H/P40V/Q125Y/R42H/S133A/S149N/S66Y/V115G/V209L/W38E); experiment: HLA-DR radioligand binding inhibition assay, DRB1*0405; conditions: IC50 nM purified HLA DRB1 *0405, purified HLA DRB1*0405
T2 construct: purified from EBV transformed homozygous cell lines or single MHC allele transfected 721.221, C1R, or fibroblast lines; made in house
Method in brief: as §1

purified HLA DRB1*0701 = biological target: T3, purified HLA DRB1*0701 (Homo sapiens, UniProt P01903+P01911, A100R/A102G/A103Q/D57E/D86V/E43K/F76Y/K127E/L162R/M171V/P40G/Q125H/Q99D/R33Q/R42Y/R54Q/S133A/S66F/T210M/V115G/Y107V/Y59L/Y89S); experiment: HLA-DR radioligand binding inhibition assay, DRB1*0701; conditions: IC50 nM purified HLA DRB1 *0701, purified HLA DRB1*0701
T3 construct: purified from EBV transformed homozygous cell lines or single MHC allele transfected 721.221, C1R, or fibroblast lines; made in house
Method in brief: as §1

purified HLA DRB1*0802 = biological target: T4, purified HLA DRB1*0802 (Homo sapiens, UniProt P01903+P01911, A100R/A103L/A169T/F76Y/H45Y/I96F/K41T/L162R/M171V/P40S/Q125H/Q178H/Q39Y/Q99D/R218S/R42G/S66Y/V115G/W38E); experiment: HLA-DR radioligand binding inhibition assay, DRB1*0802; conditions: IC50 nM purified HLA DRB1 *0802, purified HLA DRB1*0802
T4 construct: purified from EBV transformed homozygous cell lines or single MHC allele transfected 721.221, C1R, or fibroblast lines; made in house
Method: (§2) Instead, wells of an opaque white 96-well Optiplate (Packard) are coated with 3 μg (100 μl@ 30 μg/ml) of HLA-specific antibody (Ab) that “capture” complexes of radiolabeled MHC and unlabeled peptide transferred from the molecular binding assay plate in 100 μl of 0.05% NP40/PBS. After a 3-hour incubation period, the supernatant is decanted and scintillation fluid (Microscint 20) added. Captured complexes are then measured on a microplate scintillation and luminescence counter (TopCount NXTTM; Packard).
(§3) HLA-DR purification. Fifteen distinct HLA-DR molecules were used in quantitative assays to measure the binding of peptides to solubilized HLA-DR molecules. […] Briefly, columns of inactivated Sepharose CL4B and Protein A Sepharose were used as pre-columns. HLA-DR molecules were captured by passage of lysates over LB3.1 monoclonal antibody (anti-HLA-DRA) columns. Antibody columns were washed with 10 mM Tris-HCL, pH8.0 with 1% (v/v) NP-40, followed by PBS containing 0.4% (w/v) n-octylglucoside. […] The pH was reduced to 8.0 and the eluates were concentrated by centrifugation in Centriprep 30 concentrators at 2000 rpm (Amicon, Beverly, Mass.).
(§4) Briefly, 1-10 nM of radiolabeled peptide was co-incubated for 2 days at either room temperature or 37° C. with 1 μM to 1 nM purified HLA-DR molecules in the presence of a cocktail of protease inhibitors. Assays were performed at various pH conditions, ranging from pH 4 to pH 7. […] After incubation, the percentage of HLA-DR-bound radioactivity is determined by capturing HLA-DR/peptide complexes on Optiplates (Packard Instruments, Meriden, Conn.) coated with the LB3.1 antibody and determining bound counts per minute using the TopCount microscintillation counter (Packard Instruments). […] Competitor peptides are tested in 2-4 complete, independent experiments, at concentrations ranging from […].

purified HLA DRB1*0901 = biological target: T5, purified HLA DRB1*0901 (Homo sapiens, UniProt P01903+P01911, A100R/A103E/D57H/D86V/F55Y/F60I/F76Y/I96F/K127E/L162R/M171V/P40D/Q125H/Q99R/R33Q/R42F/S133A/S66N/T210M/V115G/W38K/Y107V/Y59G/Y89S); experiment: HLA-DR radioligand binding inhibition assay, DRB1*0901; conditions: IC50 nM purified HLA DRB1 *0901, purified HLA DRB1*0901
T5 construct: purified from EBV transformed homozygous cell lines or single MHC allele transfected 721.221, C1R, or fibroblast lines; made in house
Method: as §2
HLA-DR purification. Fifteen distinct HLA-DR molecules were used in quantitative assays to measure the binding of peptides to solubilized HLA-DR molecules. […] Briefly, columns of inactivated Sepharose CL4B and Protein A Sepharose were used as pre-columns. HLA-DR molecules were captured by passage of lysates over LB3.1 monoclonal antibody (anti-HLA-DRA) columns. Antibody columns were washed with 10 mM Tris-HCL, pH8.0 with 1% (v/v) NP-40, followed by PBS containing 0.4% (w/v) n-octylglucoside.
Briefly, 1-10 nM of radiolabeled peptide was co-incubated for 2 days at either room temperature or 37° C. with 1 μM to 1 nM purified HLA-DR molecules in the presence of a cocktail of protease inhibitors. Assays were performed at various pH conditions, ranging from pH 4 to pH 7. […] After incubation, the percentage of HLA-DR-bound radioactivity is determined by capturing HLA-DR/peptide complexes on Optiplates (Packard Instruments, Meriden, Conn.) coated with the LB3.1 antibody and determining bound counts per minute using the TopCount microscintillation counter (Packard Instruments).

purified HLA DRB1*1101 = biological target: T6, purified HLA DRB1*1101 (Homo sapiens, UniProt P01903+P01911, A100R/A169T/A87E/I96F/K41T/L162R/M171V/P40S/Q125H/Q178H/Q39Y/Q99D/R42S/S66Y/T262R/V115G/W38E); experiment: HLA-DR radioligand binding inhibition assay, DRB1*1101; conditions: IC50 nM purified HLA DRB1 *1101, purified HLA DRB1*1101
T6 construct: purified from EBV transformed homozygous cell lines or single MHC allele transfected 721.221, C1R, or fibroblast lines; made in house
T6 sequence (P01903 26-254, other chains not shown): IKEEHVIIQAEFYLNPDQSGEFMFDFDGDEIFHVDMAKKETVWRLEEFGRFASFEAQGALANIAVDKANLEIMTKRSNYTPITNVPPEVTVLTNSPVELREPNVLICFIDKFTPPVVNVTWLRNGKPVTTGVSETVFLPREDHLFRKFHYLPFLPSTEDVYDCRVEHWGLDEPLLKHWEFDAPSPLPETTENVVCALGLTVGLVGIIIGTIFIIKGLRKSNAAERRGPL
Method in brief: as §1

purified HLA DRB1*1201 = biological target: T7, purified HLA DRB1*1201 (Homo sapiens, UniProt P01903+P01911, A100R/A169T/D57E/D86V/F55L/H45Y/K41T/L162R/M171V/P40S/Q125H/Q178H/Q39Y/Q99D/R42G/S66L/T262R/V114A/V67L/W38E/Y59H/Y61H/Y89S); experiment: HLA-DR radioligand binding inhibition assay, DRB1*1201
T7 construct: purified from EBV transformed homozygous cell lines or single MHC allele transfected 721.221, C1R, or fibroblast lines; made in house
Method: as §2, §3, §4

purified HLA DRB1*1302 = biological target: T8, purified HLA DRB1*1302 (Homo sapiens, UniProt P01903+P01911, A100E/A169T/K41T/L162R/M171V/P40S/Q125H/Q178H/Q39Y/Q99D/R42S/S66N/T262R/V115G/W38E/Y61H); experiment: HLA-DR radioligand binding inhibition assay, DRB1*1302
T8 construct: purified from EBV transformed homozygous cell lines or single MHC allele transfected 721.221, C1R, or fibroblast lines; made in house
Method in brief: as §1

purified HLA DRB3*0101 = biological target: T9, purified HLA DRB3*0101 (Homo sapiens, UniProt P01903+P79483); experiment: HLA-DR radioligand binding inhibition assay, DRB3*0101; conditions: IC50 nM purified HLA DRB3 *0101, purified HLA DRB3*0101
T9 construct: purified from EBV transformed homozygous cell lines or single MHC allele transfected 721.221, C1R, or fibroblast lines; made in house
Method: as §2, §3, §4

purified HLA DRB5*0101 = biological target: T10, purified HLA DRB5*0101 (Homo sapiens, UniProt P01903+Q30154); experiment: HLA-DR radioligand binding inhibition assay, DRB5*0101; conditions: IC50 nM purified HLA DRB5 *0101, purified HLA DRB5*0101
T10 construct: purified from EBV transformed homozygous cell lines or single MHC allele transfected 721.221, C1R, or fibroblast lines; made in house
Method in brief: as §1

IC50 (purified HLA DRB1*0404) | IC50 (purified HLA DRB1*0405) | IC50 (purified HLA DRB1*0701) | IC50 (purified HLA DRB1*0802) | IC50 (purified HLA DRB1*0901) | IC50 (purified HLA DRB1*1101) | IC50 (purified HLA DRB1*1201) | IC50 (purified HLA DRB1*1302) | IC50 (purified HLA DRB3*0101) | IC50 (purified HLA DRB5*0101) | SMILES
> 20000 nM | > 20000 nM | > 20000 nM | > 20000 nM | > 20000 nM | > 20000 nM | > 20000 nM | > 20000 nM | > 20000 nM | – | CC[C@H](C)[C@H](NC(=O)[C@H](CS)NC(=O)[C@H](CC(C)C)NC(=O)[C@H](CCCCN)NC(=O)[C@H](CCC(=O)O)NC(=O)[C@H](C)NC(=O)[C@@H](NC(=O)[C@H](CC(C)C)NC(=O)[C@@H]1CCCN1C(=O)[C@@H](NC(=O)[C@@H](N)[C@@H](C)O)[C@@H](C)CC)[C@@H](C)O)C(=O)N[C@@H](Cc1ccc(O)cc1)C(=O)N[C@H](C(=O)N[C@@H](CC(=O)O)C(=O)N[C@@H](CC(N)=O)C(=O)O)[C@@H](C)O [Peptide 1622.01]
– | 37 nM | 3890 nM | > 20000 nM | > 20000 nM | – | > 20000 nM | – | > 20000 nM | > 20000 nM | CC[C@H](C)[C@H](NC(=O)[C@@H](NC(=O)[C@H](Cc1c[nH]cn1)NC(=O)[C@@H](N)CC(C)C)C(C)C)C(=O)N[C@@H](CCCCN)C(=O)N[C@@H](CO)C(=O)N[C@@H](CC(=O)O)C(=O)N[C@@H](CC(C)C)C(=O)N[C@H](C(=O)N[C@@H](CC(N)=O)C(=O)N[C@@H](CCC(=O)O)C(=O)N[C@@H](CCC(=O)O)C(=O)N[C@@H](C)C(=O)N[C@H](C(=O)NCC(=O)O)[C@@H](C)O)C(C)C [Peptide 9019.0005]
